Tests used:
[1] = AUCinfinity in cynomolgus monkey at 1 mg/kg, iv measured up to 8 hrs by LC-MS/MS analysis; assay type: ADME, organism-based, Macaca fascicularis; details: in vivo
[2] = AUC (0 to last) in Sprague-Dawley rat at 1 mg/kg, iv measured up to 8 hrs by LC-MS/MS analysis; assay type: ADME, organism-based; details: in vivo
[3] = AUCinfinity in Sprague-Dawley rat at 1 mg/kg, iv measured up to 8 hrs by LC-MS/MS analysis; assay type: ADME, organism-based; details: in vivo
[4] = Efflux ratio in human Caco-2 cells; assay type: ADME, cell-based
[5] = AUC (0 to last) in cynomolgus monkey at 1 mg/kg, iv measured up to 8 hrs by LC-MS/MS analysis; assay type: ADME, organism-based, Macaca fascicularis; details: in vivo
[6] = Terminal half life in cynomolgus monkey at 1 mg/kg, iv measured up to 8 hrs by LC-MS/MS analysis; assay type: ADME, organism-based, Macaca fascicularis; details: in vivo, read-out: beta t1/2 (converted)
[7] = Terminal half life in Sprague-Dawley rat at 1 mg/kg, iv measured up to 8 hrs by LC-MS/MS analysis; assay type: ADME, organism-based; details: in vivo, read-out: beta t1/2 (converted)
[8] = Clearance in cynomolgus monkey at 1 mg/kg, iv measured up to 8 hrs by LC-MS/MS analysis; assay type: ADME, organism-based, Macaca fascicularis; details: in vivo
[9] = Volume of distribution at steady state in CD-1 mouse at 1 mg/kg, iv measured up to 24 hrs by LC-MS/MS analysis; assay type: ADME, organism-based; details: in vivo, read-out: Vdss
[10] = Volume of distribution at steady state in Beagle dog at 1 mg/kg, iv measured up to 8 hrs by LC-MS/MS analysis; assay type: ADME, organism-based, Canis lupus familiaris; details: in vivo, read-out: Vdss
[11] = Clearance in CD-1 mouse at 1 mg/kg, iv measured up to 24 hrs by LC-MS/MS analysis; assay type: ADME, organism-based; details: in vivo
[12] = Terminal half life in Beagle dog at 1 mg/kg, iv measured up to 8 hrs by LC-MS/MS analysis; assay type: ADME, organism-based, Canis lupus familiaris; details: in vivo, read-out: beta t1/2 (converted)
[13] = AUC (0 to last) in CD-1 mouse at 1 mg/kg, iv measured up to 24 hrs by LC-MS/MS analysis; assay type: ADME, organism-based; details: in vivo
[14] = AUCinf in Sprague-Dawley rat at 2 mg/kg, po measured up to 8 hrs by LC-MS/MS analysis; assay type: ADME, organism-based; details: in vivo
[15] = AUC (0 to last) in Beagle dog at 1 mg/kg, iv measured up to 8 hrs by LC-MS/MS analysis; assay type: ADME, organism-based, Canis lupus familiaris; details: in vivo
[16] = AUCinfinity in Beagle dog at 1 mg/kg, iv measured up to 8 hrs by LC-MS/MS analysis; assay type: ADME, organism-based, Canis lupus familiaris; details: in vivo
[17] = Clearance in Beagle dog at 1 mg/kg, iv measured up to 8 hrs by LC-MS/MS analysis; assay type: ADME, organism-based, Canis lupus familiaris; details: in vivo
[18] = Metabolic stability in rat hepatocytes assessed as intrinsic clearance measured per 10^6 cells; assay type: ADME, cell-based, Hepatocyte; details: read-out: CLH
[19] = Clearance in Sprague-Dawley rat at 1 mg/kg, iv measured up to 8 hrs by LC-MS/MS analysis; assay type: ADME, organism-based; details: in vivo
[20] = Volume of distribution at steady state in cynomolgus monkey at 1 mg/kg, iv measured up to 8 hrs by LC-MS/MS analysis; assay type: ADME, organism-based, Macaca fascicularis; details: in vivo, read-out: Vdss
[21] = Terminal half life in CD-1 mouse at 1 mg/kg, iv measured up to 24 hrs by LC-MS/MS analysis; assay type: ADME, organism-based; details: in vivo, read-out: beta t1/2 (converted)
[22] = molecular target: T1, Tyrosine-protein kinase receptor UFO (Homo sapiens, UniProt P30530); assay: Binding affinity to AXL (unknown origin) expressed in HEK293 cells transfected with Nano-Luc fusion vector assessed as dissociation constant by measuring decrease in BRET signal preincubated for 1 hr followed by K-5 NanoBRET tracer addition incubated for 2 hrs; assay type: cell-based
T1 sequence (P30530 whole entry): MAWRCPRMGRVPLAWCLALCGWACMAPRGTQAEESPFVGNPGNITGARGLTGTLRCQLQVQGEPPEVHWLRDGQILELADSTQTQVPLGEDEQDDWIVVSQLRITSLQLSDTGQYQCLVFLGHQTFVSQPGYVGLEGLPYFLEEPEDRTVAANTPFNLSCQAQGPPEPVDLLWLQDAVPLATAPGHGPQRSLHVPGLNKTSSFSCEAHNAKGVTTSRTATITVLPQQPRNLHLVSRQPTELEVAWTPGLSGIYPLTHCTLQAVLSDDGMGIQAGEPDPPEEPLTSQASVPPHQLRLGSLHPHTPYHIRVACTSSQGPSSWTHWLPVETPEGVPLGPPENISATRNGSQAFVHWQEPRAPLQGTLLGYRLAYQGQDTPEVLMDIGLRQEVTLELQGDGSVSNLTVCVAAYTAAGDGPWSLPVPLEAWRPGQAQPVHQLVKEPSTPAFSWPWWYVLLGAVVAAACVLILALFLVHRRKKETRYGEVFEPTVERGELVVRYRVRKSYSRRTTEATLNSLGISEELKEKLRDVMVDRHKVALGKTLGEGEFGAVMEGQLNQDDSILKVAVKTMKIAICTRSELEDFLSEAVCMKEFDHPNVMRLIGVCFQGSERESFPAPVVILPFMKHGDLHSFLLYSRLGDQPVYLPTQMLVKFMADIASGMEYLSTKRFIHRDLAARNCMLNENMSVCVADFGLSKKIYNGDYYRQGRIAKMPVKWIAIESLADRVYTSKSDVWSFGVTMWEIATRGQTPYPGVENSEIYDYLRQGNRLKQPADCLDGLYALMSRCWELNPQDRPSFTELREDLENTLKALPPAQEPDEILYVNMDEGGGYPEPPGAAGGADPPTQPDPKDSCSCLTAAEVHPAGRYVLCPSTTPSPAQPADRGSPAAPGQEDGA

[23] = Metabolic stability in human hepatocytes assessed as intrinsic clearance measured per 10^6 cells; assay type: ADME, cell-based, Hepatocyte; details: read-out: CLH
[24] = molecular target: T1, Tyrosine-protein kinase receptor UFO; assay: Inhibition of human AXL measured after 150 mins by ATP-competitive HTRF based biochemical assay
[25] = AUCinfinity in CD-1 mouse at 1 mg/kg, iv measured up to 24 hrs by LC-MS/MS analysis; assay type: ADME, organism-based; details: in vivo
[26] = Volume of distribution at steady state in Sprague-Dawley rat at 1 mg/kg, iv measured up to 8 hrs by LC-MS/MS analysis; assay type: ADME, organism-based; details: in vivo, read-out: Vdss

SMILES: CN(C)C(=O)c1ccc(-c2n[nH]c3ncc(-c4ccc5c(c4)CC[C@@H](N4C6COCC4C6)CC5)cc23)cc1
- AUC(0-inf) [1]: 230 ng·h/mL
- AUC(0-t) at 8 h [2]: 6100 ng·h/mL
- AUC(0-inf) [3]: 6400 ng·h/mL
- efflux ratio [4]: 11
- AUC(0-t) at 8 h [5]: 210 ng·h/mL
- half-life [6]: 138 min
- half-life [7]: 132 min
- clearance [8]: 76.7 mL/min/kg
- Vd [9]: 3.2 L/kg
- Vd [10]: 8.1 L/kg
- clearance [11]: 38.3 mL/min/kg
- half-life [12]: 228 min
- AUC(0-t) at 24 h [13]: 13 ng·h/mL
- AUC(0-inf) [14]: 4300 ng·h/mL
- AUC(0-t) at 8 h [15]: 540 ng·h/mL
- AUC(0-inf) [16]: 560 ng·h/mL
- clearance [17]: 33.3 mL/min/kg
- hepatocyte CLint [18]: 20 µL/min/1e6 cells
- clearance [19]: 2.67 mL/min/kg
- Vd [20]: 13 L/kg
- half-life [21]: 486 min
- Kd [22]: 6.8 nM
- hepatocyte CLint [23]: 4.6 µL/min/1e6 cells
- IC50 [24]: 5.3 nM
- AUC(0-inf) [25]: 430 ng·h/mL
- Vd [26]: 0.34 L/kg

— ChEMBL document CHEMBL6134930, “Discovery of AB801, a Potent and Selective Inhibitor of AXL Receptor Tyrosine Kinase for Use in Cancer Therapy” (J Med Chem, 2025)
